Converted amounts (≈) assume the structure as drawn.
Assays:
COX-2 = target: T1, COX-2 (Mus musculus, UniProt Q05769); assay: Evaluation of COX-2 activity: PGE2 formation in aspirin-treated, LPS-stimulated mouse peritoneal macrophages; format: cell-based
T1 sequence (Q05769 18-604): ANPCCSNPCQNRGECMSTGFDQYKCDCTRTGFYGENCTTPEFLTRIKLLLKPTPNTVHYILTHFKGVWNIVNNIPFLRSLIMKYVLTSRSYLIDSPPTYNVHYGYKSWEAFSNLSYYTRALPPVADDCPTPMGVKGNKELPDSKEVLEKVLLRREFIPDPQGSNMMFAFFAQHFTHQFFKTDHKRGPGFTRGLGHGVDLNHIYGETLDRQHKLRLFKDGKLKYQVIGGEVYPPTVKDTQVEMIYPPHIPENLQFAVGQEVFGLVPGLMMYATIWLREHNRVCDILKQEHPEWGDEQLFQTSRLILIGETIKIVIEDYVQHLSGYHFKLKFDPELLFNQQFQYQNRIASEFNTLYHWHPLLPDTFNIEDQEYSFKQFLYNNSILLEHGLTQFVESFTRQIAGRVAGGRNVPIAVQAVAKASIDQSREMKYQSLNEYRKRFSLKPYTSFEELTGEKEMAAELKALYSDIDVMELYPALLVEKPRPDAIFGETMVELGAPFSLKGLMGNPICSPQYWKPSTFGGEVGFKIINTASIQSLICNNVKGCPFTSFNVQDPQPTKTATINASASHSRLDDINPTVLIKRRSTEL
Description: (§1) Evaluation of in vitro COX-2 and COX-1 Activity [J. Pharmacol. Exp. Ther. 166, 96 (1969)]
(§2) The abdominal skin of a C57BL/6 mouse was sanitized with 70% aqueous ethanol, and was removed without damaging the peritoneum. 5 ml of cold phosphate buffer solution (PBS) was then injected into the abdominal cavity. After a minute, the peritoneal fluid containing the macrophages was collected using a syringe and a needle. The collected fluid was centrifuged for 5 min at 1500 rpm to afford pellets of cells. The pellets were then dispersed in the RPMI-1640 culture medium containing 100 units/ml penicillin and 100 μg/ml streptomycin.
The pellets dispersed as above were treated with 500 μM aspirin in order to knock out the activity of the COX-1 enzymes in the cells. The suspension was then diluted with the RPMI-1640 medium to contain 1×10^6 cells/ml. 100 μl of the suspension was added to each well of a 96-well ELISA plate. Then the plate was incubated for 2 hrs at 37° C. under 5% CO2 in order to fix the macrophages onto the plate. The cells, which were not fixed onto the plate were removed by washing with PBS two times. […] The RPMI-1640 medium containing 3% fetal bovine serum albumin was added to each well of the plate, which was followed by stimulation with 10 μg/ml lipopolysaccharide (LPS). […] The LPS-treated suspensions were incubated for 16 hours at 37° C. under 5% CO2 to induce COX-2. Then the culture medium was removed and the macrophages were washed two times with PBS. Then 130 μl RPMI-1640 culture medium was added to each well and the macrophage solutions were incubated at 37° C. for 10 minutes, which was followed by the treatment with 10 μM arachidonic acid and an appropriate amount of compounds of this invention. The plate was incubated for another 10 minutes. The upper solution was collected using a micropipette and was subjected to determination of PGE2 amount in the solution. The amount of PGE2 present in the collected solution was determined either by a known radio-immuno assay or by a known enzyme-immunoassay [Methods in Enzymol. 86, 258 (1982); Methods in Enzymol. 187, 24 (1990)]. The extent of COX-2 inhibition by a compound of the present invention was calculated by assuming, that the amount of PGE2 formed with the treatment of 10 μg/ml arachidonic acid was used is the maximum possible amount of PGE2, and that the amount of PGE2 formed without the treatment of arachidonic acid is the minimum possible amount of PGE2.
(§3) In order to determine IC50 for a compound of this invention, enzymatic activities were measured at multiple concentrations of compounds of this invention around IC50 of the compound. Usually enzymatic activities at 4˜5 concentrations were measured to calculate out IC50 for a compound of this invention.

COX-1 = target: T2, COX-1 (Mus musculus, UniProt P22437); assay: Evaluation of COX-1 activity: PGE2 formation in mouse peritoneal macrophages without aspirin and LPS treatment; format: cell-based
T2 sequence (P22437 27-602): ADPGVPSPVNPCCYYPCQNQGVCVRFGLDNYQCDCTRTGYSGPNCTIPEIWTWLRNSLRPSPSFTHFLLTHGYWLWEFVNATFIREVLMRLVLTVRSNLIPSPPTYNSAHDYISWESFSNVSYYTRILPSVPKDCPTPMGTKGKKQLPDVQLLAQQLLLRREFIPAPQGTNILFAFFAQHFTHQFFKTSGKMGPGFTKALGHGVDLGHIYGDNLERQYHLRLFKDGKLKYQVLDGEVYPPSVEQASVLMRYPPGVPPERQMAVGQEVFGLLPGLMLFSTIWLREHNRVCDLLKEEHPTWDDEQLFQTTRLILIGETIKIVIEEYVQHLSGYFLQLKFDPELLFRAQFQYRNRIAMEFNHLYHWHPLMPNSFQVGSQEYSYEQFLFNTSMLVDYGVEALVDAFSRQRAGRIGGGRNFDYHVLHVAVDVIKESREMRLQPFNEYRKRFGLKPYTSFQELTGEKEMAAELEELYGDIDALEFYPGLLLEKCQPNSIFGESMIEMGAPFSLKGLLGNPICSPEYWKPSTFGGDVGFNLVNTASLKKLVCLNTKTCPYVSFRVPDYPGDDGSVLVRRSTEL
Description: as §1, §2
The pellets dispersed as above were treated with 500 μM aspirin in order to knock out the activity of the COX-1 enzymes in the cells. The suspension was then diluted with the RPMI-1640 medium to contain 1×10^6 cells/ml. 100 μl of the suspension was added to each well of a 96-well ELISA plate. Then the plate was incubated for 2 hrs at 37° C. under 5% CO2 in order to fix the macrophages onto the plate. The cells, which were not fixed onto the plate were removed by washing with PBS two times. The purity of macrophages obtained thereby was confirmed by differential counting. The RPMI-1640 medium containing 3% fetal bovine serum albumin was added to each well of the plate, which was followed by stimulation with 10 μg/ml lipopolysaccharide (LPS). Usually 5×10^5 cells/ml were present by this preparation. The LPS-treated suspensions were incubated for 16 hours at 37° C. under 5% CO2 to induce COX-2. Then the culture medium was removed and the macrophages were washed two times with PBS. Then 130 μl RPMI-1640 culture medium was added to each well and the macrophage solutions were incubated at 37° C. for 10 minutes, which was followed by the treatment with 10 μM arachidonic acid and an appropriate amount of compounds of this invention. The plate was incubated for another 10 minutes. The upper solution was collected using a micropipette and was subjected to determination of PGE2 amount in the solution. The amount of PGE2 present in the collected solution was determined either by a known radio-immuno assay or by a known enzyme-immunoassay [Methods in Enzymol. 86, 258 (1982); Methods in Enzymol. 187, 24 (1990)]. The extent of COX-2 inhibition by a compound of the present invention was calculated by assuming, that the amount of PGE2 formed with the treatment of 10 μg/ml arachidonic acid was used is the maximum possible amount of PGE2, and that the amount of PGE2 formed without the treatment of arachidonic acid is the minimum possible amount of PGE2.
In the evaluation of COX-1 inhibitory activity by a compound of the present invention, the same procedures employed for evaluation of COX-2 activity were employed, except omitting the following two steps: 1) the treatment with aspirin for knockout of COX-1 activity and 2) treatment with LPS for induction of COX-2.
as §3

Row | SMILES | IC50, μg/ml COX-2 (COX-2) [µg/mL] | melting point [°C] | IC50, μg/ml COX-1 (COX-1) [µg/mL] | IC50 (COX-2; read-out: IC50, μg/ml COX-2 (converted)) [µM] | IC50 (COX-1; read-out: IC50, μg/ml COX-1 (converted)) [µM]
1 | CC1(C)OC(c2ccc(S(C)(=O)=O)cc2F)=C(c2ccccc2)C1=O [Example 321] | 0.03 (≈ 0.0832 µM) | 175 to 176 | 20 (≈ 55.5 µM) |  | 
2 | CC(C)c1cccc(C2=C(c3ccc(S(C)(=O)=O)cc3)OC(C)(C)C2=O)c1 [Example 86] | 0.03 (≈ 0.078 µM) | 83 to 84 | 30 (≈ 78 µM) |  | 
3 | CC1(C)OC(c2ccc(S(N)(=O)=O)c(F)c2)=C(c2ccccc2Cl)C1=O [Example 304] | 0.05 (≈ 0.126 µM) | 122 to 123 | 50 (≈ 126 µM) |  | 
4 | CC1(C)OC(c2ccc(S(C)(=O)=O)c(F)c2)=C(c2cc(F)cc(F)c2)C1=O [Example 285] | 0.03 (≈ 0.0757 µM) | 163 to 164 | 200 (≈ 505 µM) |  | 
5 | CCC1(C)OC(c2ccc(S(C)(=O)=O)cc2)=C(c2ccc(OC)c(F)c2)C1=O (stereo not drawn) [Example 214] |  | 158 to 160 |  | 0.0742 | 7.42
6 | CC1(C)OC(c2ccc(S(N)(=O)=O)cc2)=C(c2cc(Cl)cc(Cl)c2)C1=O [Example 149] | 0.0087 (≈ 0.0211 µM) | 209 to 210 | 1.01 (≈ 2.45 µM) |  | 
7 | CC1(C)OC(c2ccc(S(N)(=O)=O)c(Br)c2)=C(c2ccccc2)C1=O [Example 351, 5-{4-(Aminosulfonyl)-3-bromophenyl}-2,2-dimethyl-4-phenyl-3(2H)-furanone] | 0.9 (≈ 2.13 µM) | 128 to 132 | 300 (≈ 710 µM) |  | 
8 | CC1(C)OC(c2ccc(S(C)(=O)=O)cc2F)=C(c2cc(F)ccc2F)C1=O [Example 325] | 0.05 (≈ 0.126 µM) | 150 to 151 | 200 (≈ 505 µM) |  | 
9 | CC1(C)OC(c2ccc(S(N)(=O)=O)cc2)=C(c2ccc(O)cc2)C1=O [Example 151] | 0.0188 (≈ 0.0523 µM) | 164 to 165 | >10 |  | 
10 | CCC1(CC)OC(c2ccc(S(C)(=O)=O)cc2)=C(c2ccc(F)c(Cl)c2)C1=O [Example 254] | 0.03 (≈ 0.0709 µM) | 173 to 174 | 3 (≈ 7.09 µM) |  | 
11 | CCC1(C)OC(c2ccc(S(C)(=O)=O)cc2)=C(c2ccccc2)C1=O (stereo not drawn) [Example 31, 2-Ethyl-2-methyl-5-{4-(methylsulfonyl)phenyl}-4-phenyl-3(2H)-furanone] | 0.2 (≈ 0.561 µM) | 115 to 117 | 20 (≈ 56.1 µM) |  | 
12 | CC1(C)OC(c2ccc(S(C)(=O)=O)c(Br)c2)=C(c2ccccc2)C1=O [Example 341, 5-{3-Bromo-4-(methylsulfonyl)phenyl}-2,2-dimethyl-4-phenyl-3(2H)-furanone] | 0.3 (≈ 0.712 µM) | 154 to 155 | 90 (≈ 214 µM) |  | 
13 | CSc1ccc(C2=C(c3cc(F)cc(F)c3)C(=O)C(C)(C)O2)cc1Br [Example 340] | 10 (≈ 23.5 µM) | 115 to 116 | 30 (≈ 70.5 µM) |  | 
14 | CCCCc1ccc(C2=C(c3ccc(S(C)(=O)=O)cc3)OC(C)(C)C2=O)cc1 [Example 97] | 0.002 (≈ 0.00502 µM) | 84 to 85 | 5 (≈ 12.5 µM) |  | 
15 | CC1(C)OC(c2ccc(S(C)(=O)=O)c(Cl)c2)=C(c2cc(F)cc(F)c2)C1=O [Example 362] | 0.05 (≈ 0.121 µM) | 200 to 201 | 300 (≈ 727 µM) |  | 
16 | CC1(C)OC(c2ccc(S(N)(=O)=O)cc2F)=C(c2ccccc2)C1=O [Example 332, 5-{4-(Aminosulfonyl)-2-fluorophenyl}-2,2-dimethyl-4-phenyl-3(2H)-furanone] | 0.03 (≈ 0.083 µM) | 79 to 81 | 5 (≈ 13.8 µM) |  | 

Source: patent US6492416B1, “4,5-diaryl-3(2H)-furanone derivatives as cyclooxygenase-2 inhibitors” (Pacific Corporation, priority 1999, dated 2002)
